Data: US20050147959A1, “Tissue analogs for in vitro testing and method of use therefor” (priority 2002, published 2005)

Columns and labels:
[1] = system: cartilage analogs (human nasal septal chondrocytes on microcarriers); test: De novo proteoglycan synthesis by 35S-sulfate incorporation in cartilage analogs cultured in spinner flasks; assay type: cell-based; conditions: for sulfate incorporation, cell-associated (non-secreted) fraction, compared to controls: Ibuprofen 140 μg/ml; for de novo proteoglycan synthesis compared to the control (FIG. 8): subsequent study with PPS5, 35S label during last 24 hours of culture
Method: A preliminary experiment was conducted to analyze the effect of agents such as growth factors (TGF-β1) and non-steroidal anti-inflammatory drugs (NSAIDS; Ibuprofen). Human chondrocytes from donors undergoing nasal septal defect surgery were isolated by enzymatic digestion. The cells were seeded onto microcarriers at approximately 4×10^3 cells/cm^2, and incubated in spinner flasks at 60 rpm and at 37° C. and 5% CO2 until the cells reach confluency at about 14 days. […] These aggregates are referred to here as “cartilage analogs”.
Equivalent aliquots of these analogs were transferred to six 25-ml spinner flasks. Aliquots (5 ml) of control medium (no additive), or medium containing human platelet TGF-β1 (10 ng/ml; Sigma Chemical Co., St. Louis, Mo.) or Ibuprofen (140 μg/ml; Sigma) were added to duplicate flasks. TGF-β1 is a growth factor known to stimulate proteoglycan synthesis in chondrocyte cultures and cartilage explant cultures, while Ibuprofen is an anti-inflammatory drug known to inhibit proteoglycan synthesis. […] The cultures were incubated for two days. 24 hours prior to terminating the cultures, 300 μCi of ^35S—Na2SO4 (NEN Life Science Products, Boston, Mass.) was added to each flask to measure incorporation into proteoglycans during the last 24 hours of culture.
Following termination of the cultures, cells were pelleted by centrifugation and proteoglycans were extracted from the supernatant medium and the cell fraction with 4 M guanidine HCl for 24 hours at 4° C. Guanidine HCl extracts were dialyzed extensively against deionized class I water using 6,000 Da cut-off dialysis tubing (The Spectrum Companies, Gardena, Calif.). Post-dialysis volumes were measured and triplicate 100 μl samples were counted in a LS-6500 Liquid Scintillation Counter (Beckman Instruments, Inc., Palo Alto, Calif.) using Cytoscint-ES Cocktail (ICN Research Products, Costa Mesa, Calif.). The total ^35SO4 incorporation was expressed as cpm per 10^6 cells. Another set of dialyzed samples were dried on a Speed-Vac (Savant, Inc., Farmingdale, N.Y.) and was then reconstituted in sample buffer consisting of 1% sodium dodecylsulfate, 30% sucrose and 0.025% brophenol blue. The samples were boiled for 5 min and then loaded on an 0.75% agarose gel in electrophoresis buffer. After electrophoresis, the gel was treated with Entensify (NEN Life Science Products), dried and autoradiographed at −70° C.

[2] = system: cartilage analogs (human nasal septal chondrocytes on microcarriers); test: Immunoperoxidase staining for proteoglycans in chondrocytes from cartilage analogs; assay type: cell-based; conditions: two days incubation; TGF-β1 10 ng/ml, Ibuprofen 140 μg/ml
Method: A preliminary experiment was conducted to analyze the effect of agents such as growth factors (TGF-β1) and non-steroidal anti-inflammatory drugs (NSAIDS; Ibuprofen). Human chondrocytes from donors undergoing nasal septal defect surgery were isolated by enzymatic digestion. The cells were seeded onto microcarriers at approximately 4×10^3 cells/cm^2, and incubated in spinner flasks at 60 rpm and at 37° C. and 5% CO2 until the cells reach confluency at about 14 days. At this point, the chondrocytes produce extracellular matrix-like products consisting of type II collagen, high-molecular-weight proteoglycans and aggrecan. The constructs also start to form microaggregates. These aggregates are referred to here as “cartilage analogs”.
Equivalent aliquots of these analogs were transferred to six 25-ml spinner flasks. Aliquots (5 ml) of control medium (no additive), or medium containing human platelet TGF-β1 (10 ng/ml; Sigma Chemical Co., St. Louis, Mo.) or Ibuprofen (140 μg/ml; Sigma) were added to duplicate flasks. TGF-β1 is a growth factor known to stimulate proteoglycan synthesis in chondrocyte cultures and cartilage explant cultures, while Ibuprofen is an anti-inflammatory drug known to inhibit proteoglycan synthesis. […] The cultures were incubated for two days. […]

[3] = preliminary experiment, two days, 35S label during last 24 hours, TGF-β1 10 ng/ml

CC(C)Cc1ccc(C(C)C(=O)O)cc1 (stereo not shown) [Ibuprofen, reference compound]
sulfate incorporation, cell-associated (non-secreted) fraction, compared to controls [1, 3]: decreased the cell-associated sulfate incorporation | de novo proteoglycan synthesis compared to the control (FIG. 8) [1]: decreased proteoglycan synthesis | immunostaining for proteoglycans compared to control cells [2]: more faint immunostaining

TGF-β1: human platelet TGF-β1, a growth factor known to stimulate proteoglycan synthesis in chondrocyte cultures
sulfate incorporation, media-associated (secreted) fraction, compared to controls [1, 3]: higher sulfate incorporation | sulfate incorporation, cell-associated (non-secreted) fraction, compared to controls [1, 3]: higher sulfate incorporation | de novo proteoglycan synthesis compared to the control (FIG. 8) [1]: enhanced protoglycan synthesis | immunostaining for proteoglycans compared to control cells [2]: More intense immunostaining
